Source: PMC4155172, “Killing of melanoma cells and their metastases by human lactoferricin derivatives requires interaction with the cancer marker phosphatidylserine” (Biometals, 2014)
Where a SMILES comes first, the peptide text is derived from it. The star is where a group is joined. Octanoyl(6-Me) = CCC(C)CCCCC(=O)*

Key:
[1] = Tryptophan fluorescence and acrylamide quenching with DPPC membranes; settings: second symbol of cancer mimic/healthy mimic; note: key: +, peptide effect; ++, increasing peptide effect; +++: etc; ++++: etc; −, no peptide effect
Procedure: (§1) Appropriate amounts of respective phospholipid stock solution were dried under a stream of nitrogen and stored in vacuum overnight to completely remove organic solvents. The dry lipid film was then dispersed in phosphate buffered saline (PBS, 20 mM NaPi, 130 mM NaCl, pH 7.4) and hydrated at a temperature well above the gel to fluid phase transition of the respective phospholipid under intermittent vigorous vortex-mixing. The lipid concentration was 0.1 weight % for calorimetric and 2 % for leakage experiments. Hydration was carried out in presence or absence of peptides at a lipid-to-peptide ratio of 25:1 and 12.5:1 using a protocol described for POPS (Jiménez-Monreal et al. [1998]), DPPS (Jing et al. [2005]) and DPPC (Sevcsik et al. [2007]). Briefly hydration of POPS films occurred at 30 °C, DPPS at 65 °C and DPPC at 50 °C, for 2 h with vortexing for 1 min every 15 min. The hydration of the lipid mixtures DPPS/DPPC 1:5 and DPPS/DPPC 1:1 were performed at 65 °C for 2 h by vortexing accompanied by one freeze–thaw cycle every 15 min. The fully hydrated samples were stored for at least 1 h at room temperature until measurement.
(§2) Fluorescence spectroscopy experiments were performed using a SPEX Fluoro Max-3 spectrofluorimeter (Jobin–Yvon, Longjumeaum, France) and spectra were analyzed with Datamax software.
(§3) Tryptophan fluorescence spectra were obtained at room temperature using an excitation wavelength of 282 nm and a slit width of 5 nm for excitation and emission monochromators. Quenching of Tryptophan was carried out in the presence and absence of phospholipid liposomes (lipid-to-peptide ratio 25:1) using 0.1, 0.4 and 0.7 M acrylamide. The data were analyzed according to the Stern–Volmer equation (Eq. 2):2 F0F0FF=1+KSVQ where F0 and F represent the fluorescence emission intensities in the absence and presence of the quencher molecule (Q) and KSV is the Stern–Volmer quenching constant, which is a quantitative measure for the accessibility of tryptophan to acrylamide (Tao and Cho [1979]).

[2] = Differential scanning calorimetry of DPPC liposomes; settings: for Bilayer perturbation—DSC, healthy mimic: second symbol of cancer mimic/healthy mimic; for Bilayer perturbation—DSC, healthy mimic: key: +, peptide effect; ++, increasing peptide effect; +++: etc; ++++: etc; −, no peptide effect
Procedure: as §1
(§4) DSC experiments were performed with a differential scanning calorimeter (VP-DSC) from MicroCal, Inc. (Northhampton, MA, USA). Heating scans were performed at a scan rate of 30 °C/h (pre-scan thermostating 30 min) with a final temperature of approximately 10 °C above the main transition temperature (Tm) and cooling scans at the same scan rate (pre-scan thermostating 1 min) with a final temperature approximately 20 °C below Tm. The heating/cooling cycle was performed three times. Enthalpies were calculated by integration of the peak areas after normalization to phospholipid concentration and baseline adjustment using the MicroCal Origin software (VP-DSC version). The phase transition temperature was defined as the temperature at the peak maximum (McElhaney [1982]).

[3] = tested on: melanoma cell line SBcl-2; test: Propidium iodide-uptake toxicity assay, melanoma SBcl-2; format: cell-based, human; parameters: Toxicity—PI uptake, cancer cells / Cancer specificity: key: +, peptide effect; ++, increasing peptide effect; +++: etc; ++++: etc; −, no peptide effect; settings: for Toxicity—PI uptake, cancer cells: first symbol of cancer cells/healthy cells
Description: (§5) Epidermis was separated. […] All cell cultures were periodically checked for mycoplasma.

E. coli = settings: ref Zweytick et al. [2011b]; cited from earlier work
Description: It has been reported by Yang et al. (Yang et al. [2004]) that a prerequisite for antitumor but not for antibacterial peptides derived of bovine lactoferrin is a minimum net charge close to +7 and to consist of at least 14 amino acids.

[4] = Tryptophan fluorescence and acrylamide quenching with DPPS membranes; parameters: key: +, peptide effect; ++, increasing peptide effect; +++: etc; ++++: etc; −, no peptide effect; settings: first symbol of cancer mimic/healthy mimic (PS)
Procedure: as §1, §2, §3

[5] = Differential scanning calorimetry of DPPC/DPPS 5:1 liposomes; settings: lipid to peptide 25:1, split transition given as peak/peak
Procedure: as §1, §4

[6] = Differential scanning calorimetry of DPPC/DPPS 1:1 liposomes; settings: lipid to peptide 25:1
Procedure: as §1, §4

[7] = Differential scanning calorimetry of DPPS liposomes; settings: for Bilayer perturbation—DSC, cancer mimic: first symbol of cancer mimic/healthy mimic; for Bilayer perturbation—DSC, cancer mimic: key: +, peptide effect; ++, increasing peptide effect; +++: etc; ++++: etc; −, no peptide effect
Procedure: as §1, §4

[8] = ANTS/DPX leakage from POPC LUVs; settings: for ANTS/DPX release from POPC liposomes: 2–8 µM peptide; for Permeability—ANTS/DPX leakage, healthy mimic: second symbol of cancer mimic/healthy mimic; for Permeability—ANTS/DPX leakage, healthy mimic: key: +, peptide effect; ++, increasing peptide effect; +++: etc; ++++: etc; −, no peptide effect
Procedure: [The procedure below names another target; the source lists this target under the same test.] as §1
(§6) Leakage of aqueous contents from liposomes was determined using the 8-aminonaphthalene-1,3,6-trisulfonic acid/p-xylene-bis-pyridinium bromide (ANTS/DPX) assay (Ellens et al. [1985]). Lipid films (preparation see above) were hydrated with 12.5 mM ANTS, 45 mM DPX, 68 mM NaCl, 10 mM HEPES (4-(2-hydroxyethyl)-1-piperazineethanesulfonic acid) at pH 7.4 following a standard procedure. Subsequently, the dispersions were extruded 20 times through a polycarbonate filter (Millipore-Isopore™) of 0.1 µm pore size to obtain LUVs. Unilamellarity and size were tested by X-ray and dynamic light scattering, respectively. The ANTS/DPX encapsulating vesicles were separated from free ANTS/DPX by exclusion chromatography using a column filled with Sephadex™ G-75 (Amesham Biosciences) fine gel swollen in an isosmotic buffer (10 mM HEPES, 140 mM NaCl, pH 7.4). The void volume fractions were collected and the phospholipid concentration was determined by phosphate analysis (Bartlett [1959]; Broekhuyse [2005]). The fluorescence measurements were performed in 2 mL of the isosmotic buffer in a quartz cuvette at 37 °C. Aliquots of LUVs were diluted with the isosmotic buffer to a final lipid concentration of 50 µM. Fluorescence spectra were obtained at 37 °C using an excitation wavelength of 360 nm, an emission wavelength of 530 nm and a slit width of 5 nm for both excitation and emission monochromators. Fluorescence emission was recorded as a function of time before and after the addition of incremental amounts of peptide. The fluorescence increase due to leakage and subsequent dilution of quenched dye was measured after addition of peptides. Peptides were added to final concentrations of 2, 4 and 8 µM, corresponding to peptide-to-lipid molar ratios of 1:25, 1:12.5 and 1:6.25, respectively. Data are presented in terms of fluorescence intensity (IF and were calculated using Eq. 3:3 IF=F-F0/Fmax-F0 F is the measured fluorescence, F0 the initial fluorescence without peptide and Fmax the fluorescence corresponding to 100 % leakage gained by addition of 1 % Triton X-100.

[9] = tested on: melanoma metastases WM164; test: Propidium iodide-uptake toxicity assay, melanoma metastases WM164; format: cell-based, human; settings: 20 µM peptide, 8 h
Description: as §5

[10] = ANTS/DPX leakage from POPS LUVs; settings: for ANTS/DPX release from POPS vesicles: 50 µM lipid LUVs; for Permeability—ANTS/DPX leakage, cancer mimic: first symbol of cancer mimic/healthy mimic; for specificity/selectivity for cancer over non-cancer mimic, ANTS/DPX leakage: POPS versus POPC LUVs
Procedure: as §1, §6

RBCs = settings: 2.5 % RBCs, 500 µg peptide/ml; ref Zweytick et al. [2011b]; cited from earlier work
Description: The correlation of activity against bacteria with activity on bacterial model systems for lactoferricin derived peptides and their N-acylated derivatives was shown recently (Zweytick et al. [2011b]).

[11] = tested on: differentiated non-tumorigenic melanocytes; settings: for melanocytes killed (PI-uptake): 20 µM peptide, 8 h, media containing serum
Procedure: Human melanocytes used as healthy control cells were isolated from foreskin. Foreskin was cut into small pieces and incubated with 0.3 % trypsin (PAA) overnight at 4 °C and for 1 h at 37 °C. Epidermis was separated. Cells were mechanically removed from the cell layer and centrifuged at 300 g for 3 min. The pellet was re-suspended and cells further cultured in melanocyte growth medium (Biomedica, Vienna, Austria, PromoCell GmbH, Heidelberg, Germany). All cells were kept in a 5 % CO2 atmosphere at 37 °C. At 90 % confluence cell-culture flasks were passaged after detachment with accutase (PAA, Pasching Austria). All cell cultures were periodically checked for mycoplasma.
Cells were collected, re-suspended in media and diluted to a concentration of 10^6 cells/ml. Aliquots of 10^5 cells/100 µl media were incubated with different amount of peptides (0–80 µM) for 8 h at 37 °C and 5 % CO2. Propidium iodide (PI) (2 µl/10^5cells of 50 µg/ml, Invitrogen, Camarillo, CA, USA) was added and cells were again incubated for 5 min at room temperature in the dark. Excitation and emission wavelengths were 536 and 617 nm, respectively. Cytotoxicity was calculated from the percentage of PI positive cells in media alone (P0) and in the presence of peptide (PX). […] Triton-X-100 was used to determine 100 % of PI positive cells (P100).1 %PI-uptake=100∗(PX-P0)/(P100-P0)

[12] = DPPC liposomes in PBS pH 7.4, lipid to peptide 25:1, scan rate 30 °C/h
[13] = DPPC liposomes, lipid to peptide 12.5:1
[14] = DPPC liposomes, lipid to peptide 25:1
[15] = DPPC liposomes, lipid to peptide 25:1, transition half-width
[16] = 25:1 lipid-to-peptide molar ratio
[17] = 50 µM lipid LUVs, pH 7.4, 37 °C
[18] = 8 µM peptide (peptide-to-lipid 1:6.25), 10 mM HEPES 140 mM NaCl pH 7.4, 37 °C, fluorescence
[19] = DPPS liposomes, lipid to peptide 25:1, split transition given as peak/peak

Row | Molecule | Bilayer affinity—quenching, healthy mimic [1] | ΔH pre [2, 12] | Tm [2, 14] | Tpre [2, 14] | ΔH m [2, 14] | T1/2 [2, 15] | Bilayer perturbation—DSC, healthy mimic [2] | Bilayer affinity—quenching, cancer mimic [4] | T1/2 [5] | Tm [5] | ΔH m [5] | T1/2 [6] | Tm [6] | ΔH m [6] | reduction of the main transition enthalpy of DPPS [7, 16] | Bilayer perturbation—DSC, cancer mimic [7] | ANTS/DPX release from POPC liposomes [8, 17] | Permeability—ANTS/DPX leakage, healthy mimic [8] | ANTS/DPX release from POPS vesicles [10, 18] | Permeability—ANTS/DPX leakage, cancer mimic [10] | also measured
1 | PFWRIRIRR-NH2 [LF11-322] | − | 1.1 kcal/mol | 41.3 °C | 34.8 °C | 9.0 kcal/mol | 0.17 °C | − | ++ | 0.80 °C | 42.4 °C | 10.1 kcal/mol | 2.42 °C | 44.2 °C | 8.3 kcal/mol | 10% | + | < 5% | − | ~ 20% | + | T1/2 [2, 13]: 0.26 °C; Tm [2, 13]: 41.3 °C; Tpre [2, 13]: 34.5 °C; ΔH m [2, 13]: 9.2 kcal/mol; ΔH pre [2, 13]: 1.0 kcal/mol; killing (PI-uptake) of SBcl-2 ([3]; 80 µM peptide, 8 h, media containing serum, 37 °C): < 10%; minimal inhibitory concentration for E. coli (E. coli): 8 to 16 µg/mL; T1/2 ([7]; DPPS liposomes, lipid to peptide 12.5:1): 2.48 °C; specificity, PI-uptake ratio melanoma metastases WM164 versus melanocytes [9]: twofold
2 | CCC(C)CCCCC(=O)N1CCC[C@H]1C(=O)N[C@@H](Cc1ccccc1)C(=O)N[C@@H](Cc1c[nH]c2ccccc12)C(=O)N[C@@H](CCCNC(=N)N)C(=O)N[C@H](C(=O)N[C@@H](CCCNC(=N)N)C(=O)N[C@H](C(=O)N[C@@H](CCCNC(=N)N)C(=O)N[C@@H](CCCNC(=N)N)C(N)=O)[C@@H](C)CC)[C@@H](C)CC (stereo partly drawn) [6-MO-LF11-322] ({Octanoyl(6-Me)}-PFWRIRIRR-NH2) | + | 0.4 kcal/mol |  | 34.6 °C | 9.1 kcal/mol | 0.26 °C | + | ++ |  |  |  | 2.45 °C | 43.3 °C | 5.4 kcal/mol | 35% | ++ |  | + | ~70% | ++ | lysis of RBCs (RBCs): 20%; specificity for cancer cells, PI-uptake ratio melanoma SBcl-2 versus melanocytes ([3]; 20 µM peptide, 8 h): threefold to fourfold; IC50 ([3]; PI-uptake, cancer cells, 8 h, media containing serum): ~20 µM; specificity for cancer cells after 1 h ([3]; after 1 h, data not shown): sevenfold; Toxicity—PI uptake, cancer cells [3]: ++; Toxicity—PI uptake, healthy cells [11]: +; melanocytes killed (PI-uptake) [11]: ~ 15%; T1/2 [7, 19]: 2.24 °C; leakage of POPC vesicles ([8]; peptide-to-lipid molar ratio of 1:6.25 (8 µM), 50 µM lipid LUVs, pH 7.4, 37 °C): about 20%; ANTS/DPX release from POPS vesicles ([10]; 4 µM peptide (peptide-to-lipid 1:12.5), pH 7.4, 37 °C): ~ 30%; specificity/selectivity for cancer over non-cancer mimic, ANTS/DPX leakage [10]: threefold
3 | PFWRIRIRRPRRIRIRWFP-NH2 [R-DIM-P-LF11-322, retro repeat derivative: LF11-322-proline-LF11-322 retro] | − | 1.5 kcal/mol | 41.3 °C | 34.5 °C | 9.1 kcal/mol | 0.25 °C | − | ++ | 0.83 °C | 42.2 °C | 8.2 kcal/mol | 1.08 °C | 42.4 °C | 7.9 kcal/mol | 70% | +++ | < 5% | − | 90–100% | +++ | specificity for cancer cells, PI-uptake ratio melanoma SBcl-2 versus melanocytes ([3]; 20 µM peptide, 8 h): higher than 1,000 fold; PI positive SBcl-2 cells ([3]; 20 µM peptide, 8 h, media containing serum): more than 80%; Cancer specificity ([3]; cancer cells/healthy cells): ++++; Toxicity—PI uptake, cancer cells [3]: +++; Toxicity—PI uptake, healthy cells [11]: −; melanocytes killed (PI-uptake) [11]: < 1%; decrease of the transition temperature of DPPS [7, 16]: ~5 °C; T1/2 [7, 19]: 1.53 °C; Tm [7, 19]: 47.9 °C; ΔH m [7, 19]: 3.1 kcal/mol; specificity, PI-uptake ratio melanoma metastases WM164 versus melanocytes [9]: > 500 fold; specificity/selectivity for cancer over non-cancer mimic, ANTS/DPX leakage [10]: up to 20 fold
